Laboratory results: patent US11629129B2, “Microbiocidal picolinamide derivatives” (SYNGENTA PARTICIPATIONS AG, priority 2018, dated 2023)

Assays:
[1] = test system: Botryotinia fuckeliana (Botrvtis cinerea); assay: Botryotinia fuckeliana (Botrvtis cinerea)/Liquid Culture (Gray Mould); type: cell-based; settings: Botrytis cinerea; 200 ppm in the formulation; liquid culture, growth inhibition photometrically 3-4 days after application; compared to untreated control; read-out: disease control
Experimental: Botryotinia fuckeliana (Botrvtis cinerea)/Liquid Culture (Gray Mould) Conidia of the fungus from cryogenic storage are directly mixed into nutrient broth (Vogels broth). After placing a (DMSO) solution of test compound into a microtiter plate (96-well format), the nutrient broth containing the fungal spores is added. The test plates are incubated at 24° C. and the inhibition of growth is determined photometrically 3-4 days after application.

[2] = test system: Glomerella lagenarium (Colletotrichum lagenarium); assay: Glomerella lagenarium (Colletotrichum lagenarium)/Liquid Culture (Anthracnose); type: cell-based; settings: Colletotrichum orbiculare; 200 ppm in the formulation; liquid culture, growth inhibition photometrically 3 to 4 days after application; compared to untreated control; read-out: disease control
Experimental: Glomerella lagenarium (Colletotrichum lagenarium)/Liquid Culture (Anthracnose) Conidia of the fungus from cryogenic storage are directly mixed into nutrient broth (PDB potato dextrose broth). After placing a (DMSO) solution of test compound into a microtiter plate (96-well format), the nutrient broth containing the fungal spores is added. The test plates are incubated at 24° C. and the inhibition of growth is measured photometrically 3 to 4 days after application.

[3] = test system: Monographella nivalis (Microdochium nivale); assay: Monographella nivalis (Microdochium nivale)/Liquid Culture (Foot Rot Cereals); type: cell-based; settings: 200 ppm in the formulation, liquid culture, growth inhibition photometrically 4-5 days after application, compared to untreated control, read-out: disease control
Experimental: Monographella nivalis (Microdochium nivale)/Liquid Culture (Foot Rot Cereals) Conidia of the fungus from cryogenic storage are directly mixed into nutrient broth (PDB potato dextrose broth). After placing a (DMSO) solution of test compound into a microtiter plate (96-well format), the nutrient broth containing the fungal spores is added. The test plates are incubated at 24° C. and the inhibition of growth is determined photometrically 4-5 days after application.

[4] = test system: Mycosphaerella arachidis (Cercospora arachidicola); assay: Mycosphaerella arachidis (Cercospora arachidicola)/Liquid Culture (Early Leaf Spot); type: cell-based; settings: 200 ppm in the formulation, liquid culture, growth inhibition photometrically 4-5 days after application, compared to untreated control, read-out: disease control
Experimental: Mycosphaerella arachidis (Cercospora arachidicola)/Liquid Culture (Early Leaf Spot) Conidia of the fungus from cryogenic storage are directly mixed into nutrient broth (PDB potato dextrose broth). After placing a (DMSO) solution of test compound into a microtiter plate (96-well format), the nutrient broth containing the fungal spores is added. The test plates are incubated at 24° C. and the inhibition of growth is determined photometrically 4-5 days after application.

[5] = test system: Mycosphaerella graminicola (Septoria tritici); assay: Mycosphaerella graminicola (Septoria tritici)/Liquid Culture (Septoria Blotch); type: cell-based; settings: Zymoseptoria tritici; 200 ppm in the formulation; liquid culture, growth inhibition photometrically 4 to 5 days after application; compared to untreated control; read-out: disease control
Experimental: Mycosphaerella graminicola (Septoria tritici)/Liquid Culture (Septoria Blotch) Conidia of the fungus from cryogenic storage are directly mixed into nutrient broth (PDB potato dextrose broth). After placing a (DMSO) solution of test compound into a microtiter plate (96-well format), the nutrient broth containing the fungal spores is added. The test plates are incubated at 24° C. and the inhibition of growth is determined photometrically 4 to 5 days after application.

[6] = test system: Puccinia recondita f. sp. tritici; assay: Puccinia recondita f. sp. tritici/Wheat/Leaf Disc Preventative (Brown Rust); type: in vivo; settings: foliar, 200 ppm in the formulation, wheat leaf segments cv. Kanzler, inoculated 1 day after application, assessed 7-9 days after application, compared to untreated, read-out: disease control
Experimental: Puccinia recondita f. sp. tritici/Wheat/Leaf Disc Preventative (Brown Rust) Wheat leaf segments cv. Kanzler are placed on agar in multiwell plates (24-well format) and sprayed with the formulated test compound diluted in water. The leaf disks are inoculated with a spore suspension of the fungus 1 day after application. The inoculated leaf segments are incubated at 19° C. and 75% rh under a light regime of 12 h light/12 h darkness in a climate cabinet and the activity of a compound is assessed as percent disease control compared to untreated when an appropriate level of disease damage appears in untreated check leaf segments (7-9 days after application).

COc1ccnc(C(=O)N[C@@H](C)C(=O)O[C@@H](C)c2cccc(-c3ccccc3)c2)c1O [I.a.001, [(1S)-1-(3-phenylphenyl)ethyl] (2S)-2-[(3-hydroxy-4-methoxy-pyridine-2-carbonyl)amino] propanoate]
≥ 80%: inhibition of growth at 200 ppm [1] | inhibition of growth at 200 ppm [2] | inhibition of growth at 200 ppm [3] | inhibition of growth at 200 ppm [4] | inhibition of growth at 200 ppm [5]

COc1ccnc(C(=O)N[C@@H](C)C(=O)O[C@@H](C)c2ccc(-c3ccc(C(F)(F)F)nc3)cc2)c1O [I.af.001, [(1S)-1-[4-[6-(trifluoromethyl)-3-pyridyl]phenyl]ethyl] (2S)-2-[(3-hydroxy-4-methoxy-pyridine-2-carbonyl)amino] propanoate]
≥ 80%: inhibition of growth at 200 ppm [2] | inhibition of growth at 200 ppm [3] | inhibition of growth at 200 ppm [4] | inhibition of growth at 200 ppm [5] | pest or weed control at 200 ppm [6]

COc1ccnc(C(=O)N[C@@H](C)C(=O)O[C@@H](C)c2ccc(-c3cncc(Cl)c3)cc2)c1O [I.ah.001, [(1S)-1-[4-(5-chloro-3-pyridyl)phenyl]ethyl] (2S)-2-[(3-hydroxy-4-methoxy-pyridine-2-carbonyl)amino] propanoate]
≥ 80%: inhibition of growth at 200 ppm [2] | inhibition of growth at 200 ppm [3] | inhibition of growth at 200 ppm [4] | inhibition of growth at 200 ppm [5] | pest or weed control at 200 ppm [6]

COc1ccnc(C(=O)N[C@@H](C)C(=O)O[C@@H](C)c2cccc(Oc3cccc(Cl)c3)c2)c1O [I.ar.001, [(1S)-1-[3-(3-chlorophenoxy)phenyl]ethyl] (2S)-2-[(3-hydroxy-4-methoxy-pyridine-2-carbonyl)amino] propanoate]
≥ 80%: inhibition of growth at 200 ppm [2] | inhibition of growth at 200 ppm [4] | inhibition of growth at 200 ppm [5] | pest or weed control at 200 ppm [6]

COc1ccnc(C(=O)N[C@@H](C)C(=O)O[C@@H](C)c2cccc(Oc3ccc(Cl)cc3)c2)c1O [I.as.001, [(1S)-1-[3-(4-chlorophenoxy)phenyl]ethyl] (2S)-2-[(3-hydroxy-4-methoxy-pyridine-2-carbonyl)amino] propanoate]
≥ 80%: inhibition of growth at 200 ppm [1] | inhibition of growth at 200 ppm [2] | inhibition of growth at 200 ppm [4] | inhibition of growth at 200 ppm [5] | pest or weed control at 200 ppm [6]

COc1ccnc(C(=O)N[C@@H](C)C(=O)O[C@@H](C)c2ccc(Oc3ccccc3)cc2)c1O [I.at.001, [(1S)-1-(4-phenoxyphenyl)ethyl] (2S)-2-[(3-hydroxy-4-methoxy-pyridine-2-carbonyl)amino] propanoate]
≥ 80%: inhibition of growth at 200 ppm [2] | inhibition of growth at 200 ppm [3] | inhibition of growth at 200 ppm [4] | inhibition of growth at 200 ppm [5] | pest or weed control at 200 ppm [6]

COc1ccnc(C(=O)N[C@@H](C)C(=O)O[C@@H](C)c2ccc(Oc3cccc(Cl)c3)cc2)c1O [I.au.001, [(1S)-1-[4-(3-chlorophenoxy)phenyl]ethyl] (2S)-2-[(3-hydroxy-4-methoxy-pyridine-2-carbonyl)amino] propanoate]
≥ 80%: inhibition of growth at 200 ppm [2] | inhibition of growth at 200 ppm [3] | inhibition of growth at 200 ppm [4] | inhibition of growth at 200 ppm [5] | pest or weed control at 200 ppm [6]

COc1ccnc(C(=O)N[C@@H](C)C(=O)O[C@@H](C)c2ccc(Oc3ccc(Cl)cc3)cc2)c1O [I.av.001, [(1S)-1-[4-(4-chlorophenoxy)phenyl]ethyl] (2S)-2-[(3-hydroxy-4-methoxy-pyridine-2-carbonyl)amino] propanoate]
≥ 80%: inhibition of growth at 200 ppm [2] | inhibition of growth at 200 ppm [3] | inhibition of growth at 200 ppm [4] | inhibition of growth at 200 ppm [5] | pest or weed control at 200 ppm [6]

COc1ccnc(C(=O)N[C@@H](C)C(=O)O[C@@H](C)c2cccc(-c3ccccc3Cl)c2)c1O [I.b.001, [(1S)-1-[3-(2-chlorophenyl)phenyl]ethyl] (2S)-2-[(3-hydroxy-4-methoxy-pyridine-2-carbonyl)amino] propanoate]
≥ 80%: inhibition of growth at 200 ppm [1] | inhibition of growth at 200 ppm [3] | inhibition of growth at 200 ppm [4] | inhibition of growth at 200 ppm [5] | pest or weed control at 200 ppm [6]

COc1ccnc(C(=O)N[C@@H](C)C(=O)O[C@@H](C)c2ccc(-c3cscc3C)cc2)c1O [I.bb.001, [(1S)-1-[4-(4-methyl-3-thienyl)phneyl]ethyl] (2S)-2-[(3-hydroxy-4-methoxy-pyridine-2-carbonyl)amino] propanoate]
≥ 80%: inhibition of growth at 200 ppm [2] | inhibition of growth at 200 ppm [3] | inhibition of growth at 200 ppm [4] | inhibition of growth at 200 ppm [5] | pest or weed control at 200 ppm [6]

COc1ccnc(C(=O)N[C@@H](C)C(=O)O[C@@H](C)c2ccc(-c3ccccc3C(C)C)cc2)c1O [I.j.001, [(1S)-1-[4-(2-isopropylphenyl)phenyl]ethyl] (2S)-2-[(3-hydroxy-4-methoxy-pyridine-2-carbonyl)amino] propanoate]
≥ 80%: inhibition of growth at 200 ppm [2] | inhibition of growth at 200 ppm [3] | inhibition of growth at 200 ppm [4] | inhibition of growth at 200 ppm [5] | pest or weed control at 200 ppm [6]

COc1ccnc(C(=O)N[C@@H](C)C(=O)O[C@@H](C)c2ccc(-c3cc(C)ccc3C)cc2)c1O [I.p.001, [(1S)-1-[4-(2,5-dimethylphenyl)phenyl]ethyl] (2S)-2-[(3-hydroxy-4-methoxy-pyridine-2-carbonyl)amino] propanoate]
≥ 80%: inhibition of growth at 200 ppm [1] | inhibition of growth at 200 ppm [2] | inhibition of growth at 200 ppm [4] | inhibition of growth at 200 ppm [5] | pest or weed control at 200 ppm [6]

COc1ccnc(C(=O)N[C@@H](C)C(=O)O[C@@H](C)c2ccc(-c3ccc(Cl)c(C)c3)cc2)c1O [I.y.001, [(1S)-1-[4-(4-chloro-3-methyl-phenyl)phenyl]ethyl] (2S)-2-[(3-hydroxy-4-methoxy-pyridine-2-carbonyl)amino] propanoate]
≥ 80%: inhibition of growth at 200 ppm [2] | inhibition of growth at 200 ppm [4] | inhibition of growth at 200 ppm [5] | pest or weed control at 200 ppm [6]

COc1ccnc(C(=O)N[C@@H](C)C(=O)O[C@@H](C)c2ccc(-c3cccc4ccccc34)cc2)c1O [I.z.001, [(1S)-1-[4-(1-naphthyl)phenyl]ethyl] (2S)-2-[(3-hydroxy-4-methoxy-pyridine-2-carbonyl)amino] propanoate]
≥ 80%: inhibition of growth at 200 ppm [1] | inhibition of growth at 200 ppm [2] | inhibition of growth at 200 ppm [4] | inhibition of growth at 200 ppm [5] | pest or weed control at 200 ppm [6]
